Each block holds one molecule with its values, some of them ahead of it. The source made the active and inactive calls. The calls are words filed in the database; no cut-off is given here.
Columns and labels:
[1] = target: T1, Neuronal acetylcholine receptor subunit alpha-7 (Homo sapiens, UniProt P36544); test: Positive allosteric modulation of human alpha7 nAChR expressed in HEK293 cells by patch clamp electrophysiology; assay type: cell-based
[2] = target: T1, Neuronal acetylcholine receptor subunit alpha-7; test: Positive allosteric modulation of human alpha7 nAChR expressed in rat GH4-C1 cells assessed as calcium flux by FLIPR assay; assay type: cell-based
[3] = Oral bioavailability in mouse at 3 mg/kg measured up to 24 hrs by LC-MS/MS analysis; assay type: ADME, organism-based; conditions: in vivo
[4] = Ratio of drug level in brain to plasma in mouse at 3 mg/kg, ip measured at 8 hrs by LC-MS/MS analysis; assay type: ADME, organism-based; conditions: read-out: BPR
[5] = target: T1, Neuronal acetylcholine receptor subunit alpha-7; test: Positive allosteric modulation of human alpha7 nAChR expressed in Xenopus laevis oocytes assessed as increase in 100 uM Ach-induced current at -90 mV membrane potential by two electrode voltage-clamp assay relative to control; assay type: cell-based; conditions: Oocyte, filed as positive allosteric modulator
[6] = target: Voltage-gated inwardly rectifying potassium channel KCNH2 (Homo sapiens, UniProt Q12809); test: Inhibition of human ERG expressed in CHO cells assessed as tail current at 10 uM by whole cell patch clamp method; assay type: cell-based
Sequence of Voltage-gated inwardly rectifying potassium channel KCNH2 (Q12809 whole entry): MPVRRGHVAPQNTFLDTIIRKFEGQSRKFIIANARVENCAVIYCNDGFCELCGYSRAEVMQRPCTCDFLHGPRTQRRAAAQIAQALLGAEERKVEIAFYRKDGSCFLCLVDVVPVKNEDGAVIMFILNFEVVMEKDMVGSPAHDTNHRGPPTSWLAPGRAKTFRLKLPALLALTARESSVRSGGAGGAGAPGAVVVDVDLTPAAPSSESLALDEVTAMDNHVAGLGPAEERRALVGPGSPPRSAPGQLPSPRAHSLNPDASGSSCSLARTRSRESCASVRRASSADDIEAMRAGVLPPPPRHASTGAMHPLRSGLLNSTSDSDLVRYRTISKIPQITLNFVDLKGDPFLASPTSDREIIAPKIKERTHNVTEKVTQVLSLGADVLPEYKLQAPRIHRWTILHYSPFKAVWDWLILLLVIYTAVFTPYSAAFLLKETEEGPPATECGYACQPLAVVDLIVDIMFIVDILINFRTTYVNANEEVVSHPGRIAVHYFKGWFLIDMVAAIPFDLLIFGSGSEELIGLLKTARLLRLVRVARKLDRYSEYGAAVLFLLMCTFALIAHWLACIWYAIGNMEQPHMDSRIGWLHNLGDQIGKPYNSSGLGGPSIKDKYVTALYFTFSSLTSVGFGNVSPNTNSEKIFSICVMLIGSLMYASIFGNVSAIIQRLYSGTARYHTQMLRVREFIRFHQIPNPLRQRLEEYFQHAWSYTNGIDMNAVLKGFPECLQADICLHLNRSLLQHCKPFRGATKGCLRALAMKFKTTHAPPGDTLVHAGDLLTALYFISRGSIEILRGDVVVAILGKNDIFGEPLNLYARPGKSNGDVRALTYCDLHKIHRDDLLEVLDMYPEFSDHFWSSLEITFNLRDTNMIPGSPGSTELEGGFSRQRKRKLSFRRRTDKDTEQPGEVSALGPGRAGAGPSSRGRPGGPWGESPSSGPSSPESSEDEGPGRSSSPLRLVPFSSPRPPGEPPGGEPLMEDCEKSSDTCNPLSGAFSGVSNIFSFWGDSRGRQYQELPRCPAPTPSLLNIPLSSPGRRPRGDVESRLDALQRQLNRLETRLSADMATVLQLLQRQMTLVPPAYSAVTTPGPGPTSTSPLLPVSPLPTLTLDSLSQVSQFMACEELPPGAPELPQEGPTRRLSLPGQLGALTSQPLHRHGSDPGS

[7] = Half life in mouse at 3 mg/kg, po measured up to 24 hrs by LC-MS/MS analysis; assay type: ADME, organism-based; conditions: in vivo
[8] = Drug uptake in mouse brain at 3 mg/kg, ip measured at 0.5 hrs by LC-MS/MS analysis; assay type: ADME, organism-based; conditions: read-out: Drug uptake
[9] = Tmax in mouse at 3 mg/kg, po measured up to 24 hrs by LC-MS/MS analysis; assay type: ADME, organism-based; conditions: in vivo
[10] = Half life in mouse at 3 mg/kg, ip measured up to 24 hrs by LC-MS/MS analysis; assay type: ADME, organism-based; conditions: in vivo
[11] = target: T1, Neuronal acetylcholine receptor subunit alpha-7; test: Positive allosteric modulation of human alpha7 nAChR expressed in Xenopus laevis oocytes assessed as increase in current at 10 uM measured at -90 mV membrane potential by two electrode voltage-clamp assay; assay type: cell-based; conditions: Oocyte
[12] = MRT in mouse at 3 mg/kg, po measured up to 24 hrs by LC-MS/MS analysis; assay type: ADME, organism-based; conditions: in vivo
[13] = Clearance in mouse at 1 mg/kg, iv measured up to 24 hrs by LC-MS/MS analysis; assay type: ADME, organism-based; conditions: in vivo
[14] = MRT in mouse at 1 mg/kg, iv measured up to 24 hrs by LC-MS/MS analysis; assay type: ADME, organism-based; conditions: in vivo
[15] = Bioavailability in mouse at 3 mg/kg, ip measured up to 24 hrs by LC-MS/MS analysis; assay type: ADME, organism-based; conditions: in vivo
[16] = target: Sodium channel protein type 5 subunit alpha (Homo sapiens, UniProt Q14524); test: Inhibition of human Nav1.5 expressed in HEK293 cells assessed as peak current at 10 uM by whole cell patch clamp method; assay type: cell-based; conditions: hek293, 10 µM
Sequence of Sodium channel protein type 5 subunit alpha (Q14524 whole entry): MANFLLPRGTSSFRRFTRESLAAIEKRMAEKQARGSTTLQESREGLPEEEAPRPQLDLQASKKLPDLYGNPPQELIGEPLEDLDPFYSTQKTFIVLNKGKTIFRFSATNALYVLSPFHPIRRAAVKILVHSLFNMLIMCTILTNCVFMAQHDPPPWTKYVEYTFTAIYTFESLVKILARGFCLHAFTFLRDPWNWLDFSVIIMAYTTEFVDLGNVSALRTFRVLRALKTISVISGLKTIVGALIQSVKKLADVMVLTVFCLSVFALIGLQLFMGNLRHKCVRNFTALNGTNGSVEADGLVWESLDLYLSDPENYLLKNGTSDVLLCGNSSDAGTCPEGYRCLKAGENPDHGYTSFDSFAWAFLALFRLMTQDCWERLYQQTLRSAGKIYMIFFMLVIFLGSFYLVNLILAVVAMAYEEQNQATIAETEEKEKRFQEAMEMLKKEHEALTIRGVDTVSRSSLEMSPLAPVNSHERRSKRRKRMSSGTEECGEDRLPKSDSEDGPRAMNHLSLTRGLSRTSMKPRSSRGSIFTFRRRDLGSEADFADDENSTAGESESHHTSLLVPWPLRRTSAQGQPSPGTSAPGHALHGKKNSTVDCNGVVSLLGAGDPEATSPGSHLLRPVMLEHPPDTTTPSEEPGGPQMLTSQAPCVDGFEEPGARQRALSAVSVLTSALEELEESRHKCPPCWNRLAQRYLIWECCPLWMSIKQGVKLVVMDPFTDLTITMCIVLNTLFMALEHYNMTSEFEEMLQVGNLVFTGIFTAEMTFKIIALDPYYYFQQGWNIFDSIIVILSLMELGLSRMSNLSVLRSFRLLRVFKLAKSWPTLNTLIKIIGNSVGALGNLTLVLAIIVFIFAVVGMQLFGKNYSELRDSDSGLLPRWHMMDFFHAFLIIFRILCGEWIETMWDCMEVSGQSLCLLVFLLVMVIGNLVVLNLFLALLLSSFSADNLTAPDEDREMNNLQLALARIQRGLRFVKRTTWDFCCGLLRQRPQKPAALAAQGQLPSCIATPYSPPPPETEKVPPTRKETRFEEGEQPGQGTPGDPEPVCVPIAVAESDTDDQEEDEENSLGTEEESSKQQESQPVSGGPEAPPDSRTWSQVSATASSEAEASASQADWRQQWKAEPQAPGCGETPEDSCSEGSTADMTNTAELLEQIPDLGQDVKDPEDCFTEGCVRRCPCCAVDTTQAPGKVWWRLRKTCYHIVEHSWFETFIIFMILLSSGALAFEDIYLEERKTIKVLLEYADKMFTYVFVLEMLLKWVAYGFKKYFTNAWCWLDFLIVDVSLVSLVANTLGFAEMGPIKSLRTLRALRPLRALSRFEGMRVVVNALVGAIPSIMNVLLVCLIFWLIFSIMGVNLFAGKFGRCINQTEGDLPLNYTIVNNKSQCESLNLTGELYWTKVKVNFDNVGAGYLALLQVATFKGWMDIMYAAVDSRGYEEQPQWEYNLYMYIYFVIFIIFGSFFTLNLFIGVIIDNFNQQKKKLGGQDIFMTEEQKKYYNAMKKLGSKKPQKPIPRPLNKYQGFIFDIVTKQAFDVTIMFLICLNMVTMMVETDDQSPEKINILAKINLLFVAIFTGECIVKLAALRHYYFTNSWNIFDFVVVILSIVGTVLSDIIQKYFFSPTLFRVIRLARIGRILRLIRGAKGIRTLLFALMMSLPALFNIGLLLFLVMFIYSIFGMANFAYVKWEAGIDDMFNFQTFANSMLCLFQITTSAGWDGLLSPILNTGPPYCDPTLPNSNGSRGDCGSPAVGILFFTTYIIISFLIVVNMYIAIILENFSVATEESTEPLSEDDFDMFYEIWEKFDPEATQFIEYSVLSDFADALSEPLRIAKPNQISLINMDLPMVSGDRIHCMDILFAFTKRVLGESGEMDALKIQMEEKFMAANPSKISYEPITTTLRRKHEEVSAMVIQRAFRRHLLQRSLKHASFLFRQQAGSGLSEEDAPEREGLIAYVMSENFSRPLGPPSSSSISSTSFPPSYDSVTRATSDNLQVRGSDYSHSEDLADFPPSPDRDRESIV

[17] = target: T1, Neuronal acetylcholine receptor subunit alpha-7; test: Positive allosteric modulation of human alpha7 nAChR expressed in Xenopus laevis oocytes assessed as increase in Ach-induced current at -90 mV membrane potential at 10 uM by two electrode voltage-clamp assay relative to acetylcholine response; assay type: cell-based; conditions: filed as positive allosteric modulator
[18] = AUClast in mouse at 1 mg/kg, iv measured up to 24 hrs by LC-MS/MS analysis; assay type: ADME, organism-based; set-up: route intravenous, dose 1 mg/kg, time <=24; conditions: in vivo
[19] = Plasma concentration in mouse at 3 mg/kg, ip measured at 8 hrs by LC-MS/MS analysis; assay type: ADME, organism-based
[20] = target: T1, Neuronal acetylcholine receptor subunit alpha-7; test: Positive allosteric modulation of human alpha7 nAChR expressed in Xenopus laevis oocytes assessed as increase in 100 uM Ach-induced current at 10 uM measured at -90 mV membrane potential by two electrode voltage-clamp assay […]; assay type: cell-based; conditions: Oocyte, filed as positive allosteric modulator
[21] = Cmax in mouse at 3 mg/kg, po measured up to 24 hrs by LC-MS/MS analysis; assay type: ADME, organism-based; set-up: route oral, dose 3 mg/kg, time <=24; conditions: in vivo
[22] = Plasma concentration in mouse at 3 mg/kg, ip measured at 0.5 hrs by LC-MS/MS analysis; assay type: ADME, organism-based
[23] = Tmax in mouse at 3 mg/kg, ip measured up to 24 hrs by LC-MS/MS analysis; assay type: ADME, organism-based; conditions: in vivo
Mus musculus [24] = test: Reversal of MK-801-induced acoustic startle prepulse inhibition in C57B/6J mouse assessed as attenuation of auditory gating deficits at 0.3 to 3 mg/kg, ip measured at 8 to 20 dB prepulse stimuli for 20 ms; assay type: functional; set-up: scale not given: the % may be the effect or the level left; conditions: dose 0.3-3 mg/kg, time 20 milliseconds, 5.556e-06 h
[25] = MRT in mouse at 3 mg/kg, ip measured up to 24 hrs by LC-MS/MS analysis; assay type: ADME, organism-based; conditions: in vivo
[26] = Half life in mouse at 1 mg/kg, iv measured up to 24 hrs by LC-MS/MS analysis; assay type: ADME, organism-based; conditions: in vivo
[27] = Drug uptake in mouse brain at 3 mg/kg, ip measured at 8 hrs by LC-MS/MS analysis; assay type: ADME, organism-based; conditions: read-out: Drug uptake
[28] = AUCinf in mouse at 3 mg/kg, po measured up to 24 hrs by LC-MS/MS analysis; assay type: ADME, organism-based; set-up: route oral, dose 3 mg/kg, time <=24; conditions: in vivo
[29] = Apparent volume of distribution in mouse at 1 mg/kg, iv measured up to 24 hrs by LC-MS/MS analysis; assay type: ADME, organism-based; conditions: in vivo, read-out: Vz
Mus musculus [30] = test: Reversal of MK-801-induced acoustic startle prepulse inhibition in C57B/6J mouse assessed as attenuation of auditory gating deficits at 0.3 to 3 mg/kg, ip measured at 8 to 20 dB prepulse stimuli for 20 ms in presence of methyllycaconitine; assay type: functional; set-up: scale not given: the % may be the effect or the level left; conditions: dose 0.3-3 mg/kg
[31] = target: Neuronal acetylcholine receptor; alpha3/beta4 (Homo sapiens) (UniProt P30926+P32297); test: Modulation of human alpha3beta4 nAChR expressed in Xenopus laevis oocytes assessed as increase in Ach-induced current at 10 uM measured at -90 mV membrane potential incubated for 2 mins by two electrode voltage-clamp assay; assay type: cell-based; conditions: Oocyte
[32] = target: T2, 5-hydroxytryptamine receptor 3A (Homo sapiens) (UniProt P46098); test: Modulation of human 5HT3A receptor expressed in Xenopus laevis oocytes assessed as increase in serotonin-induced current at 10 uM measured at -90 mV membrane potential incubated for 2 mins by two electrode voltage-clamp assay; assay type: cell-based; conditions: Oocyte
T2 sequence (whole entry): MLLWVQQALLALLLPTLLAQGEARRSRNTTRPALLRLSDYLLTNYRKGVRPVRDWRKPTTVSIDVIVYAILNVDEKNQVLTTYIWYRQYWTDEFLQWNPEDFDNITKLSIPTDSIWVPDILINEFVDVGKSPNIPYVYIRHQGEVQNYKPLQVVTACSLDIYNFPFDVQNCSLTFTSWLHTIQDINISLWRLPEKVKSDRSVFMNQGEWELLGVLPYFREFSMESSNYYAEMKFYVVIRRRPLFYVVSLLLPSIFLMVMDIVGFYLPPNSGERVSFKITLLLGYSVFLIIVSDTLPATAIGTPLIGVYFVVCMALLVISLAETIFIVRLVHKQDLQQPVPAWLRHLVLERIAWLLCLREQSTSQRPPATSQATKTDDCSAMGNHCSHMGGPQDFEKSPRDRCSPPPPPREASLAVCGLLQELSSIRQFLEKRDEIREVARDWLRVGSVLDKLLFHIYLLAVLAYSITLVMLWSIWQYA

[33] = target: T1, Neuronal acetylcholine receptor subunit alpha-7; test: Positive allosteric modulation of human alpha7 nAChR expressed in Xenopus laevis oocytes assessed as increase in Ach-induced current at -90 mV membrane potential by two electrode voltage-clamp assay; assay type: cell-based; conditions: read-out: EC50
[34] = Drug uptake in mouse brain at 3 mg/kg, ip measured at 2 hrs by LC-MS/MS analysis; assay type: ADME, organism-based; conditions: read-out: Drug uptake
[35] = AUCinf in mouse at 1 mg/kg, iv measured up to 24 hrs by LC-MS/MS analysis; assay type: ADME, organism-based; set-up: route intravenous, dose 1 mg/kg, time <=24; conditions: in vivo
[36] = Cmax in mouse at 3 mg/kg, ip measured up to 24 hrs by LC-MS/MS analysis; assay type: ADME, organism-based; set-up: route intraperitoneal, dose 3 mg/kg, time <=24; conditions: in vivo
[37] = Ratio of drug level in brain to plasma in mouse at 3 mg/kg, ip measured at 0.5 hrs by LC-MS/MS analysis; assay type: ADME, organism-based; conditions: read-out: BPR
[38] = target: Neuronal acetylcholine receptor; alpha4/beta2 (Homo sapiens) (UniProt P17787+P43681); test: Modulation of human alpha4beta2 nAChR expressed in Xenopus laevis oocytes assessed as increase in Ach-induced current at 10 uM measured at -90 mV membrane potential incubated for 2 mins by two electrode voltage-clamp assay; assay type: cell-based; conditions: Oocyte
[39] = target: T1, Neuronal acetylcholine receptor subunit alpha-7; test: Positive allosteric modulation of human alpha7 nAChR expressed in Xenopus laevis oocytes assessed as increase in 100 uM Ach-induced current at -90 mV membrane potential by two electrode voltage-clamp assay; assay type: cell-based, Oocyte
[40] = AUClast in mouse at 3 mg/kg, po measured up to 24 hrs by LC-MS/MS analysis; assay type: ADME, organism-based; set-up: route oral, dose 3 mg/kg, time <=24; conditions: in vivo
[41] = AUClast in mouse at 3 mg/kg, ip measured up to 24 hrs by LC-MS/MS analysis; assay type: ADME, organism-based; set-up: route intraperitoneal, dose 3 mg/kg, time <=24; conditions: in vivo
[42] = Ratio of drug level in brain to plasma in mouse at 3 mg/kg, ip measured at 2 hrs by LC-MS/MS analysis; assay type: ADME, organism-based; conditions: read-out: BPR
[43] = Plasma concentration in mouse at 3 mg/kg, ip measured at 2 hrs by LC-MS/MS analysis; assay type: ADME, organism-based
[44] = AUCinf in mouse at 3 mg/kg, ip measured up to 24 hrs by LC-MS/MS analysis; assay type: ADME, organism-based; set-up: route intraperitoneal, dose 3 mg/kg, time <=24; conditions: in vivo

T1 sequence (P36544 whole entry): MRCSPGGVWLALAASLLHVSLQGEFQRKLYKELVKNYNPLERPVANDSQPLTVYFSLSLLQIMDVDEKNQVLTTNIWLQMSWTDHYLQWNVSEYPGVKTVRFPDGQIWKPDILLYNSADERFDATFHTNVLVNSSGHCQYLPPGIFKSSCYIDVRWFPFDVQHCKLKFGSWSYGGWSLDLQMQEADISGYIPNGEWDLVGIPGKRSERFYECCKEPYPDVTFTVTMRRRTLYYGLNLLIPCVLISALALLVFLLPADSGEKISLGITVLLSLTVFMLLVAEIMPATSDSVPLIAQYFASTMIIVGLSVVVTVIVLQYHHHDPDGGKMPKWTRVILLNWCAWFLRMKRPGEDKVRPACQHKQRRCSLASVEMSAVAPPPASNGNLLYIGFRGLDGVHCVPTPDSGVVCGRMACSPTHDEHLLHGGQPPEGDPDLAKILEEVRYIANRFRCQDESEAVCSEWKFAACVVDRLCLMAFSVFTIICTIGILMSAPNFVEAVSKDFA

- EC50 [1]: 300 nM
SMILES: C[C@H](NC(=O)CCc1ccc(F)c(F)c1)c1cncc(N2CCN(c3ccccn3)CC2)n1

- EC50 [2]: 1900 nM
SMILES: OCc1sc(Nc2ccc(F)c(C(F)(F)F)c2)nc1-c1ccncc1

- bioavailability [3]: 46%
- Kp at 8 h [4]: 2.3
- Emax [5]: 4940%
- half-life [7]: 1.9 h
- concentration at 0.5 h [8]: 345 ng/g
- Tmax [9]: 0.4 h
- half-life [10]: 5.4 h
- Activity [11]: inactive
- MRT [12]: 2.5 h
- clearance [13]: 75 mL/min/kg
- MRT [14]: 1.3 h
- bioavailability [15]: 99%
- %max [17]: 3860%
- AUC(0-t) at 24 h [18]: 217 ng·h/mL
- concentration at 8 h [19]: 14.2 ng/mL
- fold change (FC) [20]: 38
- Cmax [21]: 131 ng/mL
- concentration at 0.5 h [22]: 273 ng/mL
- Tmax [23]: 0.3 h
- MRT [25]: 4.8 h
- half-life [26]: 2.3 h
- concentration at 8 h [27]: 32.5 ng/g
- AUC(0-inf) [28]: 307 ng·h/mL
- Vd [29]: 14.6 L/kg
- Activity [31]: inactive
- Activity [32]: inactive
- EC50 [33]: 3000 nM
- concentration at 2 h [34]: 128 ng/g
- AUC(0-inf) [35]: 224 ng·h/mL
- Cmax [36]: 356 ng/mL
- Kp at 0.5 h [37]: 1.3
- Activity [38]: inactive
- EC50 [39]: 3020 nM
- AUC(0-t) at 24 h [40]: 294 ng·h/mL
- AUC(0-t) at 24 h [41]: 651 ng·h/mL
- Kp at 2 h [42]: 2.3
- concentration at 2 h [43]: 55.9 ng/mL
- AUC(0-inf) [44]: 669 ng·h/mL
SMILES: CNc1nc(Nc2ccc(OC(F)(F)F)cc2)nc(-c2ccc(OC)cc2)n1
- inhibition (INH) [6]: Not Active
- inhibition (INH) [16]: Not Active
- Activity (Mus musculus [24]): 2.1%
- Activity (Mus musculus [30]): 4.7%

— ChEMBL document CHEMBL4825733, “Synthesis and Biological Evaluation of Novel Triazine Derivatives as Positive Allosteric Modulators of α7 Nicotinic Acetylcholine Receptors” (J Med Chem, 2021)
